Assay results as given in patent publication US12551482B2, “Aurora kinase inhibitors” (The Regents of the University of California, priority 2013, dated 2026).
“Also recorded” adds a separate entry of the source. Like-named read-outs stand apart in the source and are kept apart here.

Tests used:
MYCN = MYCN protein by western blot in SK-N-BE(2) cells; format: cell-based
Protocol: Neuroblastoma tumor cell lines were obtained from the University of California San Francisco Cell Culture Facility (Kelly, SK-N-BE2, and SH-EP). SMS-KCN, SHEP MYCN^wt and MYCN^T58A/S62A cells were obtained. All cells were grown in RPMI with 10% FBS. Neuroblastoma cells were harvested and lysed with Cell Signaling Lysis buffer+1% SDS, sonicated and supernatants boiled in LDS sample buffer (Invitrogen). Western blots were performed as described previously (Chanthery et al., 2012), with primary antibodies to MYCN (ab24193, Abcam), Histone H3, P-Histone H3 (S10), Aurora A (Cell signaling), and GAPDH (Millipore). Western blot quantitation performed with ImageJ software.

MYCN-Aurora A complex = target: T1, MYCN-Aurora A complex (Homo sapiens, UniProt O14965); experiment: Pulldown of MYCN and immunoblot for Aurora A; format: cell-based; conditions: MYCN-amplified IMR32 cells, 4 hrs MG-132, 2 hrs drug, increasing concentrations
T1 construct: Representative immunoprecipitation of MYCN and immunoblots from MYCN-amplified IMR32 cells; endogenous in cells
T1 sequence (O14965 whole entry, one chain of several): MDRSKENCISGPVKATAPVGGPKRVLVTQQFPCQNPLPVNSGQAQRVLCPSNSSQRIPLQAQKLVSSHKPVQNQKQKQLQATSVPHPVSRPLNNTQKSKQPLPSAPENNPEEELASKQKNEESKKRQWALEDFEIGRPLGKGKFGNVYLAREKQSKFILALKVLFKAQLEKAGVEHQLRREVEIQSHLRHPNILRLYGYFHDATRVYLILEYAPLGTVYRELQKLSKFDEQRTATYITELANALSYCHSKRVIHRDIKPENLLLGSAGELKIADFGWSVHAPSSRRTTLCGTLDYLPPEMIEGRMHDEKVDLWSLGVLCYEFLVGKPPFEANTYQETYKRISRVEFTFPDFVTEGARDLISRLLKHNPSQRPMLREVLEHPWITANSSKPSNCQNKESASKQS

phospho-pan-Aurora = experiment: Phospho-pan-Aurora by flow cytometry; format: cell-based; conditions: 1 μM, 6 hrs (FIG. 6C)
Protocol: Neuroblastoma cells were treated for the indicated time, trypsinized, washed, stained with Dylight 800 at 0.3 μg/mL (Pierce, 46421), fixed with 1.5% PFA, and permeabilized with 100% methanol. Cells were then stained with antibodies against p-MPM2 (Millipore, 16-155), p-pan-Aurora (Cell Signaling, 2914), MYCN (Thermo, PA5-17403), rabbit IgG (Invitrogen, A10542), or mouse IgG (BioLegend, 405307). Cells were stained with DAPI at 0.3 μg/mL (Invitrogen, D21490) and analyzed on the BD LSR II flow cytometer. For cell cycle analysis, cells were stimulated with EdU for 2 hours prior to harvest, then probed using the Click-iT EdU Flow Cytometry Assay Kit (Invitrogen, C10424). Cells were stained with propidium iodide (BD, 556547) and analyzed on the BD FACSCalibur flow cytometer. Data was gated using Cytobank. For viability studies, neuroblastoma cells were plated in 96-well plates at a density of 1,000 cells/well for SHEP or 4,000 cells/well for Kelly or SK—N-BE2 cells, then incubated with indicated concentrations of drug for 72 hours at 37° C. Plates were frozen at −80° C. to induce cell lysis. CyQUANT reagent mixture (Invitrogen, C7026) was added to thawed plates, then fluorescence was measured. Alternatively, resazurin (Sigma-Aldrich, R7017) was added directly to wells following drug treatment then incubated for 4 hours at 37° C. prior to measuring fluorescence. Data was analyzed using GraphPad Prism software.

[1] = target: T2, c-MYC/Aurora A interaction (Homo sapiens, UniProt O14965); experiment: Immunoprecipitation of c-MYC and immunoblotting for Aurora A; format: cell-based; conditions: RKO colon cancer cell line
T2 construct: endogenous in cells; host or cells: RKO colon cancer cell line
T2 sequence (O14965 whole entry): as the sequence (O14965 whole entry, one chain of several) above

[2] = Pharmacokinetics of CD532 in mice; format: in vivo; conditions: mouse, serum, ip, 20 mg/kg, intraperitoneal injection
WM793B = experiment: Cancer cell line profiling, Genomics of Drug Sensitivity Project; conditions: read-out: CD532 EC50 (uM)
RPMI-7951 = experiment: as above
SNU-1 = experiment: as above; conditions: Homo sapiens, SNU1, read-out: CD532 EC50 (uM)
SNU-5 = experiment: as above; conditions: Homo sapiens, SNU-5, read-out: CD532 EC50 (uM)
MKN28 = experiment: as above; conditions: Homo sapiens, MKN-28, read-out: CD532 EC50 (uM)
HSC-39 = experiment: as above; conditions: read-out: CD532 EC50 (uM)
SAT = experiment: as above; conditions: read-out: CD532 EC50 (uM)
JHH-4 = experiment: as above; conditions: JHH-4, read-out: CD532 EC50 (uM)
JHH-2 = experiment: as above; conditions: JHH-2, read-out: CD532 EC50 (uM)
ACN = experiment: as above; conditions: read-out: CD532 EC50 (uM)
HT-144 = experiment: as above; conditions: Homo sapiens, HT-144, read-out: CD532 EC50 (uM)
LB2518-MEL = experiment: as above
LOXIMVI = experiment: as above
NB17 = experiment: as above; conditions: read-out: CD532 EC50 (uM)
UACC-257 = experiment: as above; conditions: Homo sapiens, UACC-257, read-out: CD532 EC50 (uM)
KLE = experiment: as above; conditions: Homo sapiens, read-out: CD532 EC50 (uM)
SNU-61 = experiment: as above; conditions: read-out: CD532 EC50 (uM)

O=C(Nc1ccc(Nc2nccc(Nc3cc(C4CCCC4)[nH]n3)n2)cc1)Nc1cccc(C(F)(F)F)c1 [CD532, 1-(4-((4-((5-cyclopentyl-1H-pyrazol-3-yl)amino)pyrimidin-2-yl)amino)phenyl)-3-(3-(trifluoromethyl)phenyl)urea]
time dependence of MYCN protein loss (MYCN; 1 μM, time course (FIG. 12A)): clear and time-dependent loss of MYCN protein | IC50 (MYCN; FIG. 1D, read-out: IC50 for on-target MYCN knockdown): ~250 nM | MYCN-Aurora A interaction (MYCN-Aurora A complex): complete and dose-dependent loss of Aurora A/MYCN interaction; also recorded: dose-dependent and complete dissociation of the MYCN-Aurora A complex | phospho-pan-Aurora (phospho-pan-Aurora): loss of phospho-pan-Aurora | c-MYC association with Aurora A [1]: reduces this interaction | half-life [2]: ~90 min | AUC(0-t) ([2]; read-out: AUC0-24): 27 µM·h | EC50 (WM793B): 0.705 µM | EC50 (RPMI-7951; Homo sapiens, RPMI-7951, read-out: CD532 EC50 (uM), RPMI-7951 cell line, Skin): 1.06 µM | EC50 (RPMI-7951; read-out: CD532 EC50, RPMI-7951 cell line, Skin): 0.952 µM | EC50 (SNU-1): 0.158 µM | EC50 (SNU-5): 2.51 µM | EC50 (MKN28): 10.1 µM | EC50 (HSC-39): 0.103 µM | EC50 (SAT): 1.19 µM | EC50 (JHH-4): 1.35 µM | EC50 (JHH-2): 0.543 µM | EC50 (ACN): 0.884 µM | EC50 (HT-144): 0.366 µM | EC50 (LB2518-MEL; read-out: CD532 EC50 (uM), LB2518-MEL cell line, Skin): 0.847 µM | EC50 (LB2518-MEL; read-out: CD532 EC50, LB2518-MEL cell line, Skin): 0.709 µM | EC50 (LOXIMVI; Homo sapiens, LOX IMVI, read-out: CD532 EC50 (uM), LOXIMVI cell line, Skin): 0.732 µM | EC50 (LOXIMVI; read-out: CD532 EC50, LOXIMVI cell line, Skin): 0.384 µM | EC50 (NB17): 0.282 µM | EC50 (UACC-257): 0.607 µM | EC50 (KLE): 2.99 µM | EC50 (SNU-61): 1.02 µM
